In patent US20260250289A1, “BICYCLIC HETEROCYCLES AND THEIR USE AS WRN INHIBITORS” (Novartis AG, priority 2022, published 2026):

Experiments:
DLD1-WRN-KO cells = test: Proliferation assay DLD1-WRN-KO (CellTiterGlo, off-target effects); format: cell-based; settings: 96 hours, geometric mean of at least 2
Protocol: The WRN-knockdown insensitive colon carcinoma cell line DLD-1 (RRID: CVCL_0248) was obtained from the Korean Cell Line Bank (KCLB), and used to generate a derivative in which the endogenous WRN gene copies were knocked out by CRISPR-mediated editing using standard CRISPR methods. The resulting cell line, DLD1-WRN-KO, was used to assess potential off-target compound effects. […]
Three replicate plates were prepared for each compound treatment condition. In addition, one plate (termed “day 0”) was prepared to quantify the number of viable cells at the time of compound addition. Following overnight incubation at 37° C. in a humidified 5% CO2 atmosphere, eight 3-fold serial dilutions of a given compound stock (obtained at a concentration of 10 mM in DMSO and stored at 4° C.) were dispensed directly into each of the triplicate assay plates using a HP 300D non-contact Digital Dispenser (TECAN). The final concentration of DMSO was normalized to 0.1% in all wells. 96 hours after compound addition, cellular ATP levels as a surrogate for cell viability was assessed following addition of 50 microliters CellTiterGlo (Promega Cat #G7573) reagent and luminescence quantification on a MPLEX multi-mode plate-reader (TECAN) following a 10 minute incubation at room temperature. The number of viable cells in the “day 0” plate were quantified identically on the day of compound addition.
For data analysis, the assay background signal that was determined in wells containing medium, but no cells, was subtracted from all other data points prior to further calculations. The extent of growth inhibition and potential cell kill was assessed by comparing the ATP levels (measured using CellTiterGlo, Promega) in compound-treated cells with those present at the time of compound addition. […] 100%, 0% and −100% signify absence of growth inhibition, growth stasis, and complete cell kill, respectively. Compound concentrations leading to half-maximal growth inhibition (GI50) and residual cell viability at the highest tested compound concentration (Data (cmax), expressed in percent) were routinely calculated. Data analysis can also be carried out using commercially available software designed to derive IC50 values using 4-parameter fits (e.g. GraphPad Prism, XL fit). The reported GI50 values are the geometrical means of at least 2 independent replicates.

SW48 cells = test: Proliferation assay SW48 (CellTiterGlo); format: cell-based; settings: Homo sapiens, SW48, 96 h, SW48 colon carcinoma cells, 96 hours, CellTiterGlo; geometric mean of at least 2; read-out: Proliferation Assay SW48 GI50
From the text: The colon carcinoma cell lines SW48 (RRID: CVCL_1724), HCT 116 (RRID: CVCL_0291) and SNU-407 (RRID: CVCL_5058) were obtained from ATCC. The WRN-knockdown insensitive colon carcinoma cell line DLD-1 (RRID: CVCL_0248) was obtained from the Korean Cell Line Bank (KCLB), and used to generate a derivative in which the endogenous WRN gene copies were knocked out by CRISPR-mediated editing using standard CRISPR methods. The resulting cell line, DLD1-WRN-KO, was used to assess potential off-target compound effects.
SW48, SNU-407 and DLD1-WRN-KO cells were cultured in growth medium composed of RPMI-1640 (Amimed Cat #1-41F22-1), 2 mM L-Glutamine (Amimed Cat #5-10K50), 10 mM HEPES (Gibco Cat #15630-056), 1 mM sodium pyruvate (Amimed Cat #5-60F00-H), 1× Penicillin-Streptomycin (Amimed Cat #4-01F00-H) and 10% fetal calf serum (Amimed Cat #2-01F30-G, Lot #LB11566P). HCT 116 cells were cultured in growth medium composed of McCoys 5A (Amimed catalog #1-18F01-1), 2 mM L-Glutamine (Amimed Cat #5-10K50), 1× Penicillin-Streptomycin (Amimed Cat #4-01F00-H) and 10% fetal calf serum (Amimed Cat #2-01F30-G, Lot #LB11566P). All cells were maintained at 37° C. in a humidified 5% CO2 incubator.
Following filtration through a Steriflip-NY 20 μm filter (Millipore Cat #SCNY00020), trypsinized cells were seeded in 100 microliters growth medium at 2,000 (SW48) or 1,500 (SNU-407, DLD1-WRN-KO, HCT 116) cells/well into white, clear-bottom 96-well plates (Costar Cat #3903). Three replicate plates were prepared for each compound treatment condition. In addition, one plate (termed “day 0”) was prepared to quantify the number of viable cells at the time of compound addition. Following overnight incubation at 37° C. in a humidified 5% CO2 atmosphere, eight 3-fold serial dilutions of a given compound stock (obtained at a concentration of 10 mM in DMSO and stored at 4° C.) were dispensed directly into each of the triplicate assay plates using a HP 300D non-contact Digital Dispenser (TECAN). The final concentration of DMSO was normalized to 0.1% in all wells. 96 hours after compound addition, cellular ATP levels as a surrogate for cell viability was assessed following addition of 50 microliters CellTiterGlo (Promega Cat #G7573) reagent and luminescence quantification on a MPLEX multi-mode plate-reader (TECAN) following a 10 minute incubation at room temperature. The number of viable cells in the “day 0” plate were quantified identically on the day of compound addition.
For data analysis, the assay background signal that was determined in wells containing medium, but no cells, was subtracted from all other data points prior to further calculations. The extent of growth inhibition and potential cell kill was assessed by comparing the ATP levels (measured using CellTiterGlo, Promega) in compound-treated cells with those present at the time of compound addition. To this end, the following conditional concept was programmatically applied in HELIOS, an in-house software applying a multi-step decision tree to arrive at optimal concentration response curve fits (Gubler et al, SLAS DOI: 10.1177/2472555217752140) to calculate % growth (% G) for each compound-treated well: % G=(T−V0)/V0))*100 when T<V0, and % G=(T−V0)/(V−V0)))*100 when T≥V0, where V0 is the viability level at time of compound addition, while V and T represent vehicle-control and compound-treated viability levels, respectively, at the end of the compound incubation. 100%, 0% and −100% signify absence of growth inhibition, growth stasis, and complete cell kill, respectively. Compound concentrations leading to half-maximal growth inhibition (GI50) and residual cell viability at the highest tested compound concentration (Data (cmax), expressed in percent) were routinely calculated. Data analysis can also be carried out using commercially available software designed to derive IC50 values using 4-parameter fits (e.g. GraphPad Prism, XL fit). […]

[1] = biological target: T1, WRN helicase (aa N517-P1238) (Homo sapiens, UniProt Q14191); test: WRN ATPase assay (DNA dependent ATP hydrolysis, ADP-Glo); format: biochemical; settings: 3 hours pre-incubation, 300 micromolar ATP, FLAP26 DNA; geometric mean of at least 2
T1 construct: The core helicase motif of the WRN protein (aa N517-P1238) was produced for this assay; His (N); ZZ (N); 3C protease cleavage site (N); made in house; host or cells: Sf21 insect cells (baculovirus; virus and BIICs made in SF9)
From the text: An ATPase assay was set up to measure the DNA dependent ATP hydrolysis activity of WRN helicase. This assay was used also to assess the inhibition properties of compounds of the invention on DNA dependent WRN ATPase activity.
The core helicase motif of the WRN protein (aa N517-P1238) was produced for this assay (protein production as described above). […] The ADP-Glo assay kit (Promega, Madison, WI) allowing the quantification of ADP produced in ATP hydrolysis reactions was used for setting up this assay.
Time course experiments were first performed in order to determine the best enzymatic assay conditions (including buffer conditions, reaction time and concentrations of protein, ATP and DNA substrates). A typical reaction consists of 10 nM WRN protein, 0.2 nM FLAP26, and 300 micromolar ATP in the following assay buffer: 30 mM Tris pH7.5, 2 mM MgCl2, 0.02% BSA, 50 mM NaCl, 0.1% pluronic F127 prepared in DNAse free water.
To evaluate the inhibition properties of compounds of the invention, serial dilutions were prepared in DMSO (10 half log dilutions from a 10 mM DMSO solution). […] The reaction was stopped with the addition of 5 microliters of the first ADP-Glo reagent and incubated for one hour to remove the excess amount of ATP. Afterwards, 10 microliters of ATP detection reagent was added and incubated for an additional hour before reading. Luminescence output was recorded using Tecan 1000 reader, with 5 minutes delay before reading. Each concentration of compound was tested in duplicates in the assay plate.
Following normalization of activity values for the wells to % inhibition (% inhibition=[(high control-sample)/(high control-low control)]×100), IC50 fitting was carried out from the duplicate determinations present on each plate according to [4]. Data analysis can also be carried out using commercially available software designed to derive IC50 values using 4-parameter fits (e.g. GraphPad Prism, XL fit). The reported IC50 values are the geometrical means of at least 2 independent replicates.

T1 sequence (Q14191 517-1238): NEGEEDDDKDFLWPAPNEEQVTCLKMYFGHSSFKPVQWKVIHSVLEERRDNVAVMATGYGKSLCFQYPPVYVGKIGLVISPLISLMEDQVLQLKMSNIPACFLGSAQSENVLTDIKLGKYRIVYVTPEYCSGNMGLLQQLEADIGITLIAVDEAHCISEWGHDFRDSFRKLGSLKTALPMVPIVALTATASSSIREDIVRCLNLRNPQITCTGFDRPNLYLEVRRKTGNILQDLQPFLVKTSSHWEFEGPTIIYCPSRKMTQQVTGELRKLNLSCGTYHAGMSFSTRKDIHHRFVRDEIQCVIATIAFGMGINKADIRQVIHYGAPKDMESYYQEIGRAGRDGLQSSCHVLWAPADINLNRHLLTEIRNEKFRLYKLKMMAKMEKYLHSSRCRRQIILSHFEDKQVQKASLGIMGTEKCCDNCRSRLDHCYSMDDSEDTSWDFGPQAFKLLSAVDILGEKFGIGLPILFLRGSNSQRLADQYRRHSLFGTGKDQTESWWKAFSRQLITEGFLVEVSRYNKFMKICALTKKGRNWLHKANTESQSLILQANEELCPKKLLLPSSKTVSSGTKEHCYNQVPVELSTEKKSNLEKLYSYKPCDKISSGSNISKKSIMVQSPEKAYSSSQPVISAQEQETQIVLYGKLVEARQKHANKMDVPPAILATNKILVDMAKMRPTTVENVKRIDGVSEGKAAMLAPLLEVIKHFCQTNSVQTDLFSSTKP

SMILES	GI50 (DLD1-WRN-KO cells) [µM]	GI50 (SW48 cells) [nM]	IC50 [1] [nM]
CCc1c(N2CCN(C(=O)c3c(O)ccc4ccncc34)CC2)c(=O)n2nc(C3=CCOCC3)nc2n1CC(=O)Nc1ccc(C(F)(F)F)cc1C [Example 40, 2-(2-(3,6-dihydro-2H-pyran-4-yl)-5-ethyl-6-(4-(7-hydroxyisoquinoline-8-carbonyl)piperazin-1-yl)-7-oxo-[1,2,4]triazolo[1,5-a]pyrimidin-4(7H)-yl)-N-(2-methyl-4-(trifluoromethyl)phenyl)acetamide]	> 10	600	40
CC(=O)N1CCN(c2c(C)n(CC(=O)Nc3ccc(C(F)(F)F)cc3)c3nc(N4CCC(N(C)CC(F)F)CC4)nn3c2=O)CC1 [Example 113, 2-(6-(4-acetylpiperazin-1-yl)-2-(4-((2,2-difluoroethyl)(methyl)amino)piperidin-1-yl)-5-methyl-7-oxo-[1,2,4]triazolo[1,5-a]pyrimidin-4(7H)-yl)-N-(4-(trifluoromethyl)phenyl)acetamide]	> 10	5000	300
COC(=O)N1CC=C(c2nc3n(CC(=O)Nc4ccc(Cl)c(C(F)(F)F)c4)c(C)c(N4CCN(C(C)=O)CC4)c(=O)n3n2)CC1 [Example 77, methyl 4-(6-(4-acetylpiperazin-1-yl)-4-(2-((4-chloro-3-(trifluoromethyl)phenyl)amino)-2-oxoethyl)-5-methyl-7-oxo-4,7-dihydro-[1,2,4]triazolo[1,5-a]pyrimidin-2-yl)-5,6-dihydropyridine-1(2H)-carboxylate]	> 10	4000	200
CC(=O)N1CCN(c2c(C)n(CC(=O)Nc3ccc(C(F)(F)F)cc3)c3nc(C4=CCCC4)nn3c2=O)CC1 [Example 110, 2-(6-(4-acetylpiperazin-1-yl)-2-(cyclopent-1-en-1-yl)-5-methyl-7-oxo-[1,2,4]triazolo[1,5-a]pyrimidin-4(7H)-yl)-N-(4-(trifluoromethyl)phenyl)acetamide]	> 10	5000	200

The remaining lines, values ahead:

GI50 (DLD1-WRN-KO cells) [µM]	GI50 (SW48 cells) [nM]	IC50 [1] [nM]	SMILES
> 10	> 10000	100	Cc1c(N2CCN(C(=O)c3ccncc3O)CC2)c(=O)n2nc(C3=CCOCC3)nc2n1CC(=O)Nc1ccc(C(F)(F)F)cc1 [Example 36, 2-(2-(3,6-dihydro-2H-pyran-4-yl)-6-(4-(3-hydroxyisonicotinoyl)piperazin-1-yl)-5-methyl-7-oxo-[1,2,4]triazolo[1,5-a]pyrimidin-4(7H)-yl)-N-(4-(trifluoromethyl)phenyl)acetamide]
1	3000	300	CC(=O)N1CCN(c2c(C)n(CC(=O)Nc3ccc(Cl)cc3)c3nc(N4CCN(C(=O)OC(C)(C)C)CC4)nn3c2=O)CC1 [Example 158, tert-butyl 4-(6-(4-acetylpiperazin-1-yl)-4-(2-((4-chlorophenyl)amino)-2-oxoethyl)-5-methyl-7-oxo-4,7-dihydro-[1,2,4]triazolo[1,5-a]pyrimidin-2-yl)piperazine-1-carboxylate]
> 10	1000	500	CC(=O)N1CCN(c2c(C)n(CC(=O)Nc3ccc(S(F)(F)(F)(F)F)cc3C)c3nc(C4=CCOCC4)nn3c2=O)CC1 [Example 62, 2-(6-(4-acetylpiperazin-1-yl)-2-(3,6-dihydro-2H-pyran-4-yl)-5-methyl-7-oxo-[1,2,4]triazolo[1,5-a]pyrimidin-4(7H)-yl)-N-(2-methyl-4-(pentafluoro-l6-sulfaneyl)phenyl)acetamide]
> 10	3000	800	CC(=O)N1CCN(c2c(C)n(CC(=O)Nc3c(C)cc(C(F)(F)F)cc3Cl)c3nc(C4=CCOCC4)nn3c2=O)CC1 [Example 96, 2-(6-(4-acetylpiperazin-1-yl)-2-(3,6-dihydro-2H-pyran-4-yl)-5-methyl-7-oxo-[1,2,4]triazolo[1,5-a]pyrimidin-4(7H)-yl)-N-(2-chloro-6-methyl-4-(trifluoromethyl)phenyl)acetamide]
